Source: the supplement of paper PMC11451515

System: P12-Ichikawa
Assay: cell viability relative to DMSO control; higher = less cytotoxic
Conditions: 48 h
Summary of the method: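 Viability is a per-plate percentage relative to DMSO wells, with cell-free wells as background. CellTiter-Glo One luminescence was read after 48 h at 37°C on 1536-well plates (5 μl) of NOMO1 or SEM (500 cells/well) or P12-Ichikawa (1000 cells/well) leukemia cells. The cells had been adapted for at least four passages in each medium and pin-dosed with library compounds in DMSO from 47 μM to 0.79 nM in 11 threefold steps.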

[1] = HPLM + 10% dialyzed FBS, 0.000781 µM
[2] = HPLM + 10% dialyzed FBS, 0.00234 µM
[3] = HPLM + 10% dialyzed FBS, 0.00702 µM
[4] = HPLM + 10% dialyzed FBS, 0.0211 µM
[5] = HPLM + 10% dialyzed FBS, 0.0632 µM
[6] = HPLM + 10% dialyzed FBS, 0.19 µM
[7] = HPLM + 10% dialyzed FBS, 0.569 µM
[8] = HPLM + 10% dialyzed FBS, 1.71 µM
[9] = HPLM + 10% dialyzed FBS, 5.12 µM
[10] = HPLM + 10% dialyzed FBS, 15.4 µM
[11] = HPLM + 10% dialyzed FBS, 46.1 µM
[12] = RPMI 5 mM glucose + 10% FBS, 0.000781 µM
[13] = RPMI 5 mM glucose + 10% FBS, 0.00234 µM
[14] = RPMI 5 mM glucose + 10% FBS, 0.00702 µM
[15] = RPMI 5 mM glucose + 10% FBS, 0.0211 µM
[16] = RPMI 5 mM glucose + 10% FBS, 0.0632 µM
[17] = RPMI 5 mM glucose + 10% FBS, 0.19 µM
[18] = RPMI 5 mM glucose + 10% FBS, 0.569 µM
[19] = RPMI 5 mM glucose + 10% FBS, 1.71 µM
[20] = RPMI 5 mM glucose + 10% FBS, 5.12 µM
[21] = RPMI 5 mM glucose + 10% FBS, 15.4 µM
[22] = RPMI 5 mM glucose + 10% FBS, 46.1 µM
[23] = RPMI 5 mM glucose + 10% dialyzed FBS, 0.000781 µM
[24] = RPMI 5 mM glucose + 10% dialyzed FBS, 0.00234 µM
[25] = RPMI 5 mM glucose + 10% dialyzed FBS, 0.00702 µM
[26] = RPMI 5 mM glucose + 10% dialyzed FBS, 0.0211 µM
[27] = RPMI 5 mM glucose + 10% dialyzed FBS, 0.0632 µM
[28] = RPMI 5 mM glucose + 10% dialyzed FBS, 0.19 µM
[29] = RPMI 5 mM glucose + 10% dialyzed FBS, 0.569 µM
[30] = RPMI 5 mM glucose + 10% dialyzed FBS, 1.71 µM
[31] = RPMI 5 mM glucose + 10% dialyzed FBS, 5.12 µM
[32] = RPMI 5 mM glucose + 10% dialyzed FBS, 15.4 µM
[33] = RPMI 5 mM glucose + 10% dialyzed FBS, 46.1 µM

Row | SMILES | cell viability [1] [%] | cell viability [2] [%] | cell viability [3] [%] | cell viability [4] [%] | cell viability [5] [%] | cell viability [6] [%] | cell viability [7] [%] | cell viability [8] [%] | cell viability [9] [%] | cell viability [10] [%] | cell viability [11] [%] | cell viability [12] [%] | cell viability [13] [%] | cell viability [14] [%] | cell viability [15] [%] | cell viability [16] [%] | cell viability [17] [%] | cell viability [18] [%] | cell viability [19] [%] | cell viability [20] [%] | cell viability [21] [%] | cell viability [22] [%] | cell viability [23] [%] | cell viability [24] [%] | cell viability [25] [%] | cell viability [26] [%] | cell viability [27] [%] | cell viability [28] [%] | cell viability [29] [%] | cell viability [30] [%] | cell viability [31] [%] | cell viability [32] [%] | cell viability [33] [%]
1 | CC1=C(C)C(=O)C(C(CCCCCC(=O)O)c2ccccc2)=C(C)C1=O (centres undefined) | 76.1 | 91.6 | 83.8 | 76.4 | 80.6 | 84.5 | 73.8 | 83.9 | 86.2 | 84.5 | 70.6 | 86 | 91.2 | 96.2 | 94.5 | 103 | 97.5 | 82.3 | 96.1 | 72.9 | 66.7 | 56.6 | 70.5 | 77.9 | 71.7 | 84.1 | 84.4 | 85.8 | 79.2 | 80.3 | 67.4 | 72 | 52.1
2 | O=C(C=CC#Cc1cccc(N[S+](=O)([O-])c2ccccc2)c1)NO | 110 | 113 | 118 | 116 | 119 | 114 | 103 | 92.7 | 3.67 | 3.02 | 3 | 113 | 119 | 116 | 123 | 117 | 116 | 122 | 75.6 | 6.32 | 3.14 | 2.9 | 113 | 114 | 117 | 121 | 117 | 117 | 113 | 80.4 | 3.83 | 2.6 | 2.95
3 | CC(C)c1ccc2c(c1)c(SC(C)(C)C)c(CC(C)(C)C(=O)[O-])n2Cc1ccc(Cl)cc1 | 98.5 | 98.9 | 99.7 | 103 | 97 | 98.4 | 94.8 | 93.4 | 90.3 | 87.5 | 90.8 | 96.3 | 91.5 | 100 | 96.2 | 96 | 96.3 | 92.6 | 92.3 | 88.2 | 85.3 | 89.9 | 87 | 93.6 | 90.3 | 88.8 | 94.8 | 88.3 | 93.8 | 89.3 | 81.7 | 82.2 | 84.5
4 | S=C(NCc1ccc2c(c1)OCO2)N1CCN(c2ncnc3c2oc2ccccc23)CC1 | 115 | 111 | 114 | 106 | 111 | 102 | 105 | 95.6 | 69.5 | 65.2 | 33.2 | 105 | 106 | 108 | 103 | 111 | 102 | 96.2 | 74.1 | 52.7 | 54 | 29.6 | 114 | 110 | 115 | 106 | 107 | 108 | 99 | 77.8 | 60.4 | 64.6 | 35.3
5 | NNCCc1ccccc1 | 116 | 123 | 118 | 115 | 118 | 116 | 115 | 113 | 113 | 106 | 95.3 | 120 | 115 | 120 | 117 | 110 | 119 | 129 | 128 | 109 | 106 | 91.9 | 109 | 116 | 116 | 110 | 123 | 111 | 112 | 116 | 113 | 107 | 96.9
6 | COC(=O)Nc1cc(Nc2cc(NC3CC3)c3ncc(C#N)n3n2)c(Cl)c(N2CCN(C)CC2)c1 | 107 | 102 | 102 | 111 | 106 | 97.4 | 106 | 103 | 76.8 | 65.3 | 3.92 | 104 | 104 | 102 | 106 | 105 | 108 | 105 | 92.8 | 67 | 41.5 | 4.51 | 106 | 108 | 111 | 108 | 109 | 102 | 104 | 95 | 63.7 | 36.1 | 4.2
7 | COc1ccccc1OCC(O)COC(N)=O (centres undefined) | 88.2 | 107 | 103 | 109 | 109 | 107 | 111 | 117 | 111 | 112 | 58.1 | 112 | 118 | 117 | 114 | 120 | 118 | 124 | 106 | 118 | 126 | 125 | 93.1 | 105 | 101 | 107 | 110 | 103 | 110 | 101 | 113 | 117 | 106
8 | C[C@H]1COC2=C3N1\C=C(C(O)=O)/C(=O)C3=CC(=C2N4CCN(C)CC4)F | 117 | 116 | 121 | 116 | 109 | 113 | 97.2 | 109 | 92.7 | 85.6 | 82.9 | 111 | 113 | 117 | 120 | 98.2 | 116 | 98.6 | 103 | 84.2 | 62.5 | 70.4 | 109 | 111 | 114 | 118 | 108 | 112 | 91.7 | 94.7 | 82.4 | 74.2 | 62.6
